Holding throughout (type): functional
The subject of one assay is Pseudomonas aeruginosa. Briefly: Antimicrobial activity against Pseudomonas aeruginosa PAO1 by CLSI-based broth microdilution method.
Another assay relates to Escherichia coli. The assay is described as follows: Antimicrobial activity against tolC deficient Escherichia coli KD65 by CLSI-based broth microdilution method. To be noted: Escherichia coli, KD65; read-out: MIC. For orientation: Broth dilution looks for growth in wells or tubes with falling amounts of substance.
The test system of assay [1] is Staphylococcus aureus. The assay is described as follows: Antimicrobial activity against Staphylococcus aureus ATCC 29213 by CLSI-based broth microdilution method. The conditions noted are these: Staphylococcus aureus, ATCC 29213; read-out: MIC.
For assay [2], the system named is Mycobacterium tuberculosis. Briefly: Antimicrobial activity against Mycobacterium tuberculosis H37Rv ATCC 27294 incubated for 7 days by microplate Alamar blue assay. The conditions noted are these: H37Rv ATCC 27294, 168 h. (In general: Alamar Blue is a resazurin reagent that responds to reducing activity.)
For assay [3], the system named is Staphylococcus epidermidis. Briefly: Antimicrobial activity against methicillin-susceptible Staphylococcus epidermidis ATCC 12228 incubated for 18 to 24 hrs by two-fold serial dilution method.
For assay [4], the system named is Staphylococcus aureus. Briefly: Antimicrobial activity against methicillin-susceptible Staphylococcus aureus ATCC 29213 incubated for 18 to 24 hrs by two-fold serial dilution method.
The subject of assay [5] is Staphylococcus aureus. Briefly: Antimicrobial activity against methicillin-resistant Staphylococcus aureus ATCC 33591 incubated for 18 to 24 hrs by two-fold serial dilution method.
Another assay concerns Enterococcus faecium. Briefly: Antimicrobial activity against Enterococcus faecium ATCC 700221 incubated for 18 to 24 hrs by two-fold serial dilution method.

≈ marks a conversion by molar mass, not a printed value.

Broadly, the MIC is the least concentration at which growth counts as inhibited. As for `N[C@@H]1CCN2c3c(F)cc4c(=O)c(C(=O)O)cn(C5CC5)c4c3C=NC[C@H]12`, the minimum inhibitory concentration (MIC) is 1 µg/mL (≈ 2.7 µM) in the assay on Pseudomonas aeruginosa, 0.125 µg/mL (≈ 0.337 µM) in the assay on Escherichia coli and 4 µg/mL (≈ 10.8 µM) in the assay on Staphylococcus aureus [1].

Regarding `N[C@@H]1CCN2c3c(F)cc4c(=O)c(C(=O)O)cn(C5CC5)c4c3CCC[C@H]12`, the MIC against Pseudomonas aeruginosa was 0.125 µg/mL (≈ 0.337 µM); in the assay with Escherichia coli, 0.004 µg/mL (≈ 0.0108 µM); with Staphylococcus aureus [1], 0.03 µg/mL (≈ 0.0808 µM).

In the case of `N[C@@H]1C[C@@H]2CCCc3c(c(F)cc4c(=O)c(C(=O)O)cn(C5CC5)c34)N2C1`, the results for the minimal inhibitory concentration (MIC) in the assay with Pseudomonas aeruginosa, in the assay on Escherichia coli and in the assay on Staphylococcus aureus [1] were 1 µg/mL (≈ 2.69 µM), 0.25 µg/mL (≈ 0.673 µM) and 0.25 µg/mL (≈ 0.673 µM), respectively.

For the compound `COc1c(N2CCN(C/C(C)=N/Nc3ccc(F)cc3)CC2)c(F)cc2c(=O)c(C(=O)O)cn(C3CC3)c12`, the MIC is 0.215 µM (≈ 0.113 µg/mL) in assay [2]; 0.125 µg/mL (≈ 0.238 µM) in assay [3]; 0.125 µg/mL (≈ 0.238 µM) against Staphylococcus aureus [4]; 0.125 µg/mL (≈ 0.238 µM) against Staphylococcus aureus [5]; 32 µg/mL (≈ 60.9 µM) in the assay with Enterococcus faecium.

Regarding `N[C@@H]1CCN2c3c(F)cc4c(=O)c(C(=O)O)cn(C5CC5)c4c3/C=C\CC[C@H]12`, the MIC in the assay on Pseudomonas aeruginosa came to 32 µg/mL (≈ 83.5 µM); in the assay with Escherichia coli, 0.25 µg/mL (≈ 0.652 µM); in the assay on Staphylococcus aureus [1], 4 µg/mL (≈ 10.4 µM).

Regarding `O=C(O)c1cn(C2CC2)c2c3c(c(F)cc2c1=O)N1CCCC1COC3` (stereo not given), the MIC against Pseudomonas aeruginosa was > 64 µg/mL; in the assay on Escherichia coli it was 1 µg/mL (≈ 2.79 µM); with Staphylococcus aureus [1], 0.5 µg/mL (≈ 1.4 µM).

With `N[C@H]1C[C@H]2CC=Cc3c(c(F)cc4c(=O)c(C(=O)O)cn(C5CC5)c34)N2C1`, the results for the minimal inhibitory concentration (MIC) against Pseudomonas aeruginosa, with Escherichia coli and in the assay with Staphylococcus aureus [1] were 64 µg/mL (≈ 173 µM), 16 µg/mL (≈ 43.3 µM) and 8 µg/mL (≈ 21.7 µM), respectively.

For `O=C(O)c1cn(C2CC2)c2c3c(c(F)cc2c1=O)N1CCCC1CCC3` (stereo not given), the MIC worked out at 17 µg/mL (≈ 47.7 µM) with Pseudomonas aeruginosa, 0.18 µg/mL (≈ 0.505 µM) in the assay on Escherichia coli and 0.1 µg/mL (≈ 0.281 µM) in the assay with Staphylococcus aureus [1].

Take `COc1c(N2CCN(CCn3c([N+](=O)[O-])cnc3C)CC2)c(F)cc2c(=O)c(C(=O)O)cn(C3CC3)c12`: the MIC in assay [2] was 1.72 µM (≈ 0.885 µg/mL); in assay [3] it was 1 µg/mL (≈ 1.94 µM); in the assay with Staphylococcus aureus [4] it was 1 µg/mL (≈ 1.94 µM); with Staphylococcus aureus [5], 1 µg/mL (≈ 1.94 µM); against Enterococcus faecium it was > 128 µg/mL.

In the case of `N[C@@H]1C[C@H]2CCCc3c(c(F)cc4c(=O)c(C(=O)O)cn(C5CC5)c34)N2C1`, the figures for the MIC against Pseudomonas aeruginosa, in the assay with Escherichia coli and in the assay on Staphylococcus aureus [1] were 32 µg/mL (≈ 86.2 µM), 8 µg/mL (≈ 21.5 µM) and 8 µg/mL (≈ 21.5 µM), respectively.

With `COc1c(N2CCN(C/C(C)=N/Nc3nc4ccccc4[nH]3)CC2)c(F)cc2c(=O)c(C(=O)O)cn(C3CC3)c12`, the MIC in assay [2] worked out at 0.434 µM (≈ 0.238 µg/mL); in assay [3], 1 µg/mL (≈ 1.83 µM); with Staphylococcus aureus [4] it was 1 µg/mL (≈ 1.83 µM); with Staphylococcus aureus [5], 1 µg/mL (≈ 1.83 µM); against Enterococcus faecium, 128 µg/mL (≈ 234 µM).

Turning to `O=C(O)c1cn(C2CC2)c2c3c(c(F)cc2c1=O)N1CCCC1CNC3` (stereo not given), the minimum inhibitory concentration (MIC) is 16 µg/mL (≈ 44.8 µM) against Pseudomonas aeruginosa, 0.125 µg/mL (≈ 0.35 µM) in the assay on Escherichia coli and 0.25 µg/mL (≈ 0.7 µM) in the assay on Staphylococcus aureus [1].

Consider `O=C1CC2CCCN2c2c(F)cc3c(=O)c(C(=O)O)cn(C4CC4)c3c2N1` (stereo not given), for which the MIC was > 64 µg/mL against Pseudomonas aeruginosa, 4 µg/mL (≈ 10.8 µM) in the assay on Escherichia coli and > 64 µg/mL in the assay with Staphylococcus aureus [1].

`N[C@H]1CCN2c3c(F)cc4c(=O)c(C(=O)O)cn(C5CC5)c4c3COC[C@H]12`: the MIC against Pseudomonas aeruginosa is 0.25 µg/mL (≈ 0.67 µM); with Escherichia coli, 0.002 µg/mL (≈ 0.00536 µM); with Staphylococcus aureus [1] it was 0.0082 µg/mL (≈ 0.022 µM).

Consider `CC(=O)N1Cc2c(c(F)cc3c(=O)c(C(=O)O)cn(C4CC4)c23)N2CCCC2C1` (stereo not given), for which the MIC was > 16 µg/mL against Pseudomonas aeruginosa, 0.2 µg/mL (≈ 0.501 µM) in the assay with Escherichia coli and 0.082 µg/mL (≈ 0.205 µM) with Staphylococcus aureus [1].

Regarding `O=C(O)c1cn(C2CC2)c2c3c(c(F)cc2c1=O)N1CCCC1CC(O)C3O` (stereo not given), the minimal inhibitory concentration (MIC) was 8 µg/mL (≈ 20.6 µM) against Pseudomonas aeruginosa, < 0.06 µg/mL in the assay with Escherichia coli and < 0.06 µg/mL in the assay with Staphylococcus aureus [1].

Take `N[C@H]1CCN2c3c(F)cc4c(=O)c(C(=O)O)cn(C5CC5)c4c3C=NC[C@H]12`: the minimal inhibitory concentration (MIC) against Pseudomonas aeruginosa is 0.5 µg/mL (≈ 1.35 µM); in the assay with Escherichia coli, ≤ 0.06 µg/mL; in the assay with Staphylococcus aureus [1], 2 µg/mL (≈ 5.4 µM).

On to `CO/N=C1/Cc2c(c(F)cc3c(=O)c(C(=O)O)cn(C4CC4)c23)N2CCCC2C1` (stereo not given), for which the MIC worked out at 64 µg/mL (≈ 160 µM) in the assay on Pseudomonas aeruginosa, 0.25 µg/mL (≈ 0.626 µM) with Escherichia coli and 1 µg/mL (≈ 2.5 µM) with Staphylococcus aureus [1].

On to `O=C(O)c1cn(C2CC2)c2c3c(c(F)cc2c1=O)N1CCCC1C/C(=N\O)C3` (stereo not given), for which the minimal inhibitory concentration (MIC) in the assay on Pseudomonas aeruginosa is > 16 µg/mL; in the assay with Escherichia coli it was 0.03 µg/mL (≈ 0.0778 µM); in the assay with Staphylococcus aureus [1] it was 0.125 µg/mL (≈ 0.324 µM).

Take `N[C@@H]1CCN2c3c(F)cc4c(=O)c(C(=O)O)cn(C5CC5)c4c3COC[C@H]12`: the MIC came to 0.5 µg/mL (≈ 1.34 µM) in the assay with Pseudomonas aeruginosa, 0.004 µg/mL (≈ 0.0107 µM) in the assay with Escherichia coli and 2 µg/mL (≈ 5.36 µM) in the assay on Staphylococcus aureus [1].

Turning to `N[C@@H]1C[C@H]2CC=Cc3c(c(F)cc4c(=O)c(C(=O)O)cn(C5CC5)c34)N2C1`, the results for the MIC against Pseudomonas aeruginosa, in the assay with Escherichia coli and with Staphylococcus aureus [1] were 32 µg/mL (≈ 86.6 µM), 2 µg/mL (≈ 5.41 µM) and 2 µg/mL (≈ 5.41 µM), respectively.

As to `N[C@H]1CCN2c3c(F)cc4c(=O)c(C(=O)O)cn(C5CC5)c4c3CNC[C@H]12`, the MIC against Pseudomonas aeruginosa is 0.5 µg/mL (≈ 1.34 µM); with Escherichia coli, ≤ 0.06 µg/mL; with Staphylococcus aureus [1], 1 µg/mL (≈ 2.69 µM).

`N[C@@H]1CCN2c3c(F)cc4c(=O)c(C(=O)O)cn(C5CC5)c4c3CNC[C@H]12`: the MIC was 16 µg/mL (≈ 43 µM) in the assay with Pseudomonas aeruginosa, 0.25 µg/mL (≈ 0.671 µM) with Escherichia coli and 1 µg/mL (≈ 2.69 µM) in the assay with Staphylococcus aureus [1].

Source of the values: ChEMBL document CHEMBL4602605, “Fluoroquinolones structural and medicinal developments (2013-2018): Where are we now?” (Bioorg Med Chem, 2019).
